The record followed here is article PMC9607578, “Chemopreventive Effect on Human Colon Adenocarcinoma Cells of Styrylquinolines: Synthesis, Cytotoxicity, Proapoptotic Effect and Molecular Docking Analysis” (Molecules, 2022).

The test system of assay [1] is SW480 cells. The assay can be described thus: Cytotoxic activity, sulforhodamine B (SRB) staining. In kind it is cell-based, human. The following applies: for IC50: Homo sapiens, SW480, mean ± SE, read-out: SW480 IC50. On the procedure: (§1) For the biological assays, the human colon adenocarcinoma cell line SW480 and its metastatic derivative SW620 were used. Additionally, the nonmalignant cell line HaCaT was used to find the selectivity index of the compounds. All cell lines were obtained by the Colombian Plant Chemistry Group of the Faculty of Exact and Natural Sciences of the University of Antioquia (Medellín, Colombia) from the European Collection of Authenticated Cell Cultures (ECACC, Salisbury, UK). Cells were cultured in a DMEM medium with 4500 mg/L of glucose and L-glutamine (Sigma-Aldrich, Burlington, MA, USA), supplemented with 10% heat-inactivated (56 °C) horse serum (Gibco, Waltham, MA, USA), 1% penicillin/streptomycin (Sigma-Aldrich, Burlington, MA, USA), and 1% non-essential amino acids (Sigma-Aldrich, Burlington, MA, USA). For all experiments, horse serum was reduced to 3%, and the medium was supplemented with […] of transferrin, 5 ng/mL of selenium, and […] of insulin (ITS; Sigma-Aldrich, Burlington, MA, USA). All cell lines were incubated at 37 °C in a 5% CO2 atmosphere. Additionally, cell cultures were constantly monitored with PCR (Sigma-Aldrich, Burlington, MA, USA) for Mycoplasma spp. to control contamination with this agent.
(§2) To evaluate the effect of styrylquinolines on the viability of the SW480, SW620, and HaCaT cell lines, sulforhodamine B (SRB) staining was used. SRB is a colorimetric assay that indirectly estimates the number of living cells based on the ability of SRB to bind to protein components of adherent cells. Briefly, the malignant cell lines were seeded at a final density of 2.0 × 10^4 cells/well, and the nonmalignant cell line was seeded at a final density of 1.5 × 10^4 cells/well in 96-well tissue culture plates. All cell lines were incubated at 37 °C in a 5% CO2 atmosphere for 24 h to enable cell adherence, and they were then treated for 24 and 48 h with increasing concentrations (0.01–160 µM) of the styrylquinolines or their respective precursors (8-hydroxyquinoline and resveratrol), as well as 1% DMSO (negative control) and 5-FU (standard drug). After treatment, cells were fixed with trichloroacetic acid (50% v/v; PanReac AppliChem, Barcelona, Spain) for a period of one hour at 4 °C. After this, the cells were incubated for 30 min at room temperature with 0.4% (w/v) SRB (Sigma-Aldrich, Burlington, MA, USA). To remove unbound SRB, the cells were washed with 1% acetic acid, and the plates were allowed to dry at room temperature. Protein-bound SRB was solubilized with 10 mM Tris-base (Amresco, Cleveland, OH, USA) for 30 min at room temperature under constant agitation, and absorbance was measured at 490 nm in a microplate reader (Bio-Rad iMark^TM, Hercules, CA, USA). Finally, the concentration of the compound that inhibits 50% of cell growth (IC50) and the selectivity index (SI) were determined.
Background: In SRB staining, fixed cells bind dye roughly in proportion to their protein.

Assay [2] concerns SW620 cells. The description is as above. In kind it is cell-based, human. The conditions noted are these: for IC50: Homo sapiens, SW-620, mean ± SE, read-out: SW620 IC50. The protocol: as §1, §2
The test system of the next assay is HaCaT cells. The assay is described as above. In kind it is cell-based. The conditions noted are these: Homo sapiens, mean ± SE, read-out: HaCaT IC50. The protocol:
as §1, §2

Assay [3] relates to SW480 cells. The assay can be described thus: Intracellular ROS production, 2',7'-DCFDA probe. The following applies: SW480, 48 h, treated at IC50, mean ± SE. The format is cell-based, human. On the procedure: (§3) In order to evaluate the effect of the chosen styrylquinolines on the production of ROS in malignant cells, the 2′,7′-dichlorofluorescein diacetate (2′,7′-DCFDA) probe (Calbiochem, San Diego, CA, USA) was used as described by Kim et al.. Briefly, malignant cells were seeded at a final density of 2.5 × 10^5 cells/well in 6-well tissue culture plates for 24 h at 37 °C in a 5% CO2 atmosphere. […] After treatment, 2′,7′-DCFDA was added to a final concentration of 10 µM and incubated at 37 °C for 30 min. Finally, representative images of each well were taken using a fluorescence microscope (Axio Vert. A1; ZEISS, Jena, Germany) and Zen blue 3.4 software. The cell lysate was obtained from each well, and relative fluorescence units (RFU) were measured at excitation/emission wavelength (Ex/Em) = 485/525 nm using the Varioskan Lux microplate reader (Thermo Fisher Scientific, Waltham, MA, USA). The total protein concentration was quantified with the BCA method using the Pierce^TM BCA kit (Thermo Fisher Scientific, Waltham, MA, USA) to normalize the UFR.

In assay [4] the test system is SW620 cells. The assay can be described thus: Intracellular ROS production, 2',7'-DCFDA probe. The format is cell-based, human. The following applies: SW620, 24 h, treated at IC50, mean ± SE. On the procedure:
as §3

For assay [5], the system named is SW480 cells. The assay can be described thus: Antiproliferative activity, SRB staining, 0-8 days. The format is cell-based, human. The following applies: for Concentration required to significantly decrease cell viability percentage from day 2 post-treatment: SW480, day 2; for Concentration from which cell viability percentage is decreased to 0% / high percentage of reduction: SW480, treatment up to 8 days. On the procedure: (§4) The antiproliferative activity of styrylquinolines with higher selective cytotoxicity toward malignant cells was also tested with SRB staining. Briefly, cells were seeded to a final density of 2.5 × 10^3 cells/well in 96-well tissue culture plates and incubated under the same conditions described for cytotoxic activity. After 24 h, the cells were treated with increasing concentrations (5–80 µM) of the selected hybrids or with 1% DMSO (negative control) for 0, 2, 4, 6, and 8 days. Culture media were replaced every 48 h to guarantee the basic nutrients required for cell growth and viability, maintaining the concentrations of each of the selected hybrids. After each incubation time, cells were fixed and stained, and the absorbance was measured as described above.

For assay [6], the system named is SW620 cells. Kind of assay: Antiproliferative activity, SRB staining, 0-8 days. The format is cell-based, human. The following applies: for Concentration required to significantly decrease cell viability percentage from day 2 post-treatment: SW620, day 2; for Concentration from which cell viability percentage is decreased to 0% / high percentage of reduction: SW620, treatment up to 8 days. On the procedure: as §4

The test system of assay [7] is SW620 cells. Kind of assay: Apoptosis, APO-DIRECT kit (FITC-dUTP/PI), flow cytometry. In kind it is cell-based, human. The conditions noted are these: treated at IC50. The protocol: To assess whether the chosen styrylquinolines generated apoptosis in malignant cells, the APO-DIRECT^TM kit (Chemicon^R International, Temecula, CA, USA) was used following the manufacturer’s instructions. Briefly, the malignant cells were seeded at a final density of 1.1 × 10^6 cells in a T75 culture flask and incubated for 24 h at 37 °C in a 5% CO2 atmosphere. […] After incubation time, cells were fixed and stained with FITC-dUTP and propidium iodide (PI), respectively, according to the manufacturer’s protocol. Analysis was conducted via flow cytometry (LSR Fortessa; BD Biosciences, San Jose, CA, USA) and FlowJo 7.6 software. All PI-FITC-positive cells were considered to be apoptotic cells.

Assay [8] has as its system SW480 cells. The assay can be described thus: Immunological markers, ProcartaPlex 18-plex panel, MAGPIX. In kind it is cell-based, human. The following applies: at IC50. The protocol:
(§5) To assess whether styrylquinolines had any effect on the expression of immunological markers associated with the inflammatory process, malignant cells were seeded at a final density of 2.5 × 10^5 cells/well in 6-well tissue culture plates, and cell adherence was allowed. […] After the incubation time, the supernatant was collected, and the levels of the following analytes were measured using the ProcartaPlex Human Th1/Th2/Th9/Th17/Th22/Treg 18-plex panel (Invitrogen) according to the manufacturer’s protocol: GM-CSF, IFN-γ, TNF-α, IL-10, IL-12p70, IL-13, IL-17A, IL-18, IL-1β, IL-2, IL-21, IL-22, IL-23, IL-27, IL-4, IL-5, IL-6, and IL-9. Furthermore, to evaluate the participation of these hybrids in the production of some markers associated with the apoptosis process (Bcl-2, active Caspase-3 and cleaved PARP) in colorectal cancer cells, the human apoptosis panel (Invitrogen, Waltham, Massachusetts, United States) was used following the manufacturer’s instructions. To normalize the concentration of each marker, total proteins were quantified using the PierceTM BCA kit (Thermo Fisher Scientific, Waltham, MA, USA).
(§6) In both cases, the reading was performed in the MAGPIX marker multiplex analyzer (Luminex XMAP, Austin, TX, USA). The concentration of each molecule was extrapolated from the calibration curve (individual for each marker) obtained from the standards provided by the kit.

Assay [9] deals with SW620 cells. The description is as above. The format is cell-based, human. The following applies: at IC50. The protocol:
as §5, §6

The test system of assay [10] is SW620 cells. The assay can be described thus: Apoptosis markers (Bcl-2, active caspase 3, cleaved PARP), human apoptosis panel, MAGPIX. The format is cell-based. The following applies: vs negative control. On the procedure: as §5, §6

Entries after “also recorded” stand apart in the source; their conditions may differ. Like-named read-outs stand apart in the source and are kept apart here.

As usually defined, the IC50 is the midpoint of a concentration-inhibition curve.

On to `Oc1ccc(/C=C/c2ccc3cccc(O)c3n2)cc1O` [Compound 3d], for which the “SI (IC50 HaCaT / IC50 SW480)” value stood at 1.0 in the assay with SW480 cells [1] (24 h treatment) and 1.9 in the assay on SW480 cells [1] (48 h treatment). Further, the IC50 is 160 ± 16.6 µM with SW480 cells [1] (24 h treatment); 42.5 ± 5.2 µM in the assay with SW480 cells [1] (48 h treatment); 54.6 ± 7.5 µM in the assay on SW620 cells [2] (24 h treatment); 6.4 ± 1.1 µM with SW620 cells [2] (48 h treatment); 164 ± 14.1 µM in the assay with HaCaT cells (24 h treatment); 78.9 ± 2.3 µM in the assay with HaCaT cells (48 h treatment). For the same compound, the “SI (IC50 HaCaT / IC50 SW620)” value is reported as 3.0 with SW620 cells [2] (24 h treatment) and 12.3 with SW620 cells [2] (48 h treatment). Also, the values for the ROS levels in the assay on SW480 cells [3] and in the assay with SW620 cells [4] were 3.3 ± 0.2 RFU and 1.8 ± 0.1 RFU, respectively. For the same compound, the entries for the “Concentration required to significantly decrease cell viability percentage from day 2 post-treatment” value in the assay on SW480 cells [5] and in the assay on SW620 cells [6] were 40 µM and 20 µM, respectively. Besides, the “Concentration from which cell viability percentage is decreased to 0% / high percentage of reduction” value in the assay with SW480 cells [5] and with SW620 cells [6] was 40 µM throughout.

On to `Oc1ccc(/C=C/c2ccc3cccc(O)c3n2)cc1` [Compound 3a], for which the “SI (IC50 HaCaT / IC50 SW480)” value in the assay with SW480 cells [1] (24 h treatment) is reported as 3.4; with SW480 cells [1] (48 h treatment), 1.8. Also, the IC50 was determined as 67.7 ± 2.8 µM with SW480 cells [1] (24 h treatment); 26.5 ± 4 µM with SW480 cells [1] (48 h treatment); 60.5 ± 2.9 µM in the assay with SW620 cells [2] (24 h treatment); 16.6 ± 2.2 µM in the assay with SW620 cells [2] (48 h treatment); 232 ± 29.2 µM in the assay on HaCaT cells (24 h treatment); 47.9 ± 3.3 µM with HaCaT cells (48 h treatment). The “SI (IC50 HaCaT / IC50 SW620)” value in the assay on SW620 cells [2] (24 h treatment) is reported as 3.8; in the assay with SW620 cells [2] (48 h treatment), 2.9. Also, the “Apoptotic cells (cell death by apoptosis)” value in the assay on SW620 cells [7] (SW620, 24 h) was found to be 6.8%; with SW620 cells [7] (SW620, 48 h) it was 21.5%. Further, the “Levels of immunological markers” value was “significant increases in the levels of GM-CSF, IFN gamma, IL-12p70, IL-4, IL-6, IL-10, and IL-17A” with SW480 cells [8] (SW480, 24 h post-treatment); “significant increases in GM-CSF, IFN gamma, IL-4, IL-6, IL-10 and IL-17A levels; also recorded: significant increases in the levels of IL-1 beta, IL-13, IL-18, IL-2, TNF alpha, IL-22, IL-27, and IL-9” with SW480 cells [8] (SW480, 48 h post-treatment); “significant increase in the levels of GM-CSF, IL-13, IL-18, IL-4, TNF alpha, IL-22, and IL-9” in the assay with SW620 cells [9] (SW620, 24 h post-treatment); “levels of IL-4 and IL-10 were significantly increased” in the assay with SW620 cells [9] (SW620, 48 h post-treatment). Moreover, the “Concentration required to significantly decrease cell viability percentage from day 2 post-treatment” value in the assay on SW480 cells [5] is 20 µM; in the assay with SW620 cells [6], 5 µM. The “Concentration from which cell viability percentage is decreased to 0% / high percentage of reduction” value with SW480 cells [5] and in the assay with SW620 cells [6] was 10 µM in each case. The “Levels of Bcl-2 and cleaved PARP” value in the assay on SW620 cells [10] (SW620, 24 and 48 h) was “did not show significant differences”. The “Levels of active caspase 3” value with SW620 cells [10] (SW620, 24 and 48 h post-treatment) is “significantly increased”.
